Patent US20100041089A1, “IMPROVED METHOD FOR DETECTING CHEMICAL […]” (priority 2006, published 2010)

System: yeast genes (expressed mRNA)
Experiment: DNA chip measurement of expressed mRNA of yeast genes after culture with a toxic chemical substance
Format: cell-based, Saccharomyces cerevisiae S288C
Conditions: for level of expressed mRNA in the presence of chemical substance / level in the absence of chemical substance: cultured two hours with the chemical substance
Protocol: Yeast (Saccharomyces cerevisiae S288C (a SUC2mal mel gap2 CUP1)) were cultured at 25° C. on YPD medium (yeast extract 1%, polypeptone 2%, glucose 2%). One of toxic chemical substances was added to the cell at logarithmic growth phase, and the cell was further cultured for two hours. Cell was cultured without any chemical substance in the same condition, and was used as a control. Concentrations of the chemical substances were defined to inhibit the growth of the yeast but not lead to death.
After the completion of cultivation, the culture was centrifuged to collect the cells. To the cells, sodium acetate buffer (50 mM sodium acetate, 10 mM EDTA, 1% SDS) was added, and the mixture was shaken at 65° C. for five minutes, followed by returning to room temperature, and obtaining the supernatant, which procedure was repeated two times. To the supernatant, ½ amount of a solution of phenol/chloroform (1:1) was added, and the mixture was centrifuged to give a supernatant, an equal amount of chloroform was added, and the mixture was centrifuged to give a supernatant. To the supernatant, an equal amount of isopropanol containing 0.3 M sodium acetate was added, and the mixture was allowed to stand at room temperature for 30 minutes, after which the mixture was centrifuged to give sediment of the whole RNAs. Seventy % ethanol was added to the sediment, and the mixture was again centrifuged to give sediment, which was then dried and dissolved in water. mRNA was isolated from the whole RNAs as followings. In view of the fact that a poly A chain is attached to the 3′ terminus of mRNA, a polynucleotide having a poly T structure which was immobilized on the surface of latex beads was used to trap the mRNA, and then the mRNA was washed and eluted with spine column (Oligotex-dT30<Super>mRNA Purification Kit, Takara). Reverse transcription of the mRNA was conducted with a reverse transcriptase (Super Script II Reverse Transcriptase; catalogue No. 18064-014, GibcoBRL) using fluorescence-labeled nucleotides to give cDNAs that were introduced with Cy3-dUTP or Cy5-dUTP during the reverse transcription.
The labeled cDNAs were dissolved in TE buffer (10 mM Tris-HCl/1 mM EDTA, pH 8.0), and the solution was dropped on the DNA chip containing the whole genes of yeast (DNA Chip Research Inc. Japan) so that the cDNAs were hybridized on the DNA chip at 65° C. for over 12 hours. The fluoresces intensity of the DNA chip was read with a scanner, and the ratio relative to the fluorescence intensity resulting from the absence of chemical substance was estimated as the following, which is shown in Tables 1 to 9.
In the Tables, “Intensity” indicated in the rightmost column is a value of the level of expressed mRNA of each gene in control cells as divided by the average level of the expressions of the whole genes. A gene of which mRNA level is lower in control, and is higher in cases of addition of chemical substance, is especially useful in the detection of toxic substances.
Here, when a ratio of an amount of mRNA expressed in the presence of the chemical substance to an amount of mRNA expressed in the absence of the chemical substance is two or more, then it is considered significant.

## C[S+](C)[O-] [(15), Dimethyl sulfoxide]
Yeast gene YNL176C
  level of expressed mRNA in the presence of chemical substance / level in the absence of chemical substance: 0.8
Yeast gene YNL194C
  level of expressed mRNA in the presence of chemical substance / level in the absence of chemical substance: 0.5
Yeast gene YNL200C
  level of expressed mRNA in the presence of chemical substance / level in the absence of chemical substance: 0.8
Yeast gene YNL241C, cultured for two hours with substance
  The level of expressed mRNA in the presence of chemical substance/The level of expressed mRNA in the absence of chemical substance: 7.0
Yeast gene YNL253W
  level of expressed mRNA in the presence of chemical substance / level in the absence of chemical substance: 0.5
Yeast gene YNL276C
  level of expressed mRNA in the presence of chemical substance / level in the absence of chemical substance: 0.5
Yeast gene YNR051C
  level of expressed mRNA in the presence of chemical substance / level in the absence of chemical substance: 1.2
Yeast gene YNR074C, cultured two hours with substance
  The level of expressed mRNA in the presence of chemical substance/The level of expressed mRNA in the absence of chemical substance: 0.8
Yeast gene YOL026C
  level of expressed mRNA in the presence of chemical substance / level in the absence of chemical substance: 0.9
Yeast gene YOR007C, cultured two hours with substance
  The level of expressed mRNA in the presence of chemical substance/The level of expressed mRNA in the absence of chemical substance: 1.3
Yeast gene YOR022C
  level of expressed mRNA in the presence of chemical substance / level in the absence of chemical substance: 0.8
Yeast gene YOR049C, cultured two hours with substance
  The level of expressed mRNA in the presence of chemical substance/The level of expressed mRNA in the absence of chemical substance: 1.3
Yeast gene YOR087W
  level of expressed mRNA in the presence of chemical substance / level in the absence of chemical substance: 0.8
Yeast gene YOR138C
  level of expressed mRNA in the presence of chemical substance / level in the absence of chemical substance: 1.0
Yeast gene YOR152C, cultured two hours with substance
  The level of expressed mRNA in the presence of chemical substance/The level of expressed mRNA in the absence of chemical substance: 3.6
Yeast gene YOR187W, mitochondria-located protein gene, cultured two hours with substance
  The level of expressed mRNA in the presence of chemical substance/The level of expressed mRNA in the absence of chemical substance: 1.3
Yeast gene YOR215C, cultured two hours with substance
  The level of expressed mRNA in the presence of chemical substance/The level of expressed mRNA in the absence of chemical substance: 0.8
Yeast gene YOR248W, cultured two hours with substance
  The level of expressed mRNA in the presence of chemical substance/The level of expressed mRNA in the absence of chemical substance: 8.8
Yeast gene YOR253W
  level of expressed mRNA in the presence of chemical substance / level in the absence of chemical substance: 1.1
Yeast gene YOR267C
  level of expressed mRNA in the presence of chemical substance / level in the absence of chemical substance: 1.3
Yeast gene YOR325W
  level of expressed mRNA in the presence of chemical substance / level in the absence of chemical substance: 0.7
Yeast gene YOR382W, cultured two hours with substance
  The level of expressed mRNA in the presence of chemical substance/The level of expressed mRNA in the absence of chemical substance: 2.1
Yeast gene YOR386W, mitochondria-located protein gene, cultured two hours with substance
  The level of expressed mRNA in the presence of chemical substance/The level of expressed mRNA in the absence of chemical substance: 1.3
Yeast gene YPL005W
  level of expressed mRNA in the presence of chemical substance / level in the absence of chemical substance: 1.2
Yeast gene YPL087W, cultured two hours with substance
  The level of expressed mRNA in the presence of chemical substance/The level of expressed mRNA in the absence of chemical substance: 1.3
Yeast gene YPL150W
  level of expressed mRNA in the presence of chemical substance / level in the absence of chemical substance: 1.1
Yeast gene YPL152W
  level of expressed mRNA in the presence of chemical substance / level in the absence of chemical substance: 2.3
Yeast gene YPL168W
  level of expressed mRNA in the presence of chemical substance / level in the absence of chemical substance: 0.8
Yeast gene YPL180W
  level of expressed mRNA in the presence of chemical substance / level in the absence of chemical substance: 0.7
Yeast gene YPL188W
  level of expressed mRNA in the presence of chemical substance / level in the absence of chemical substance: 0.8
Yeast gene YPL206C, cultured two hours with substance
  The level of expressed mRNA in the presence of chemical substance/The level of expressed mRNA in the absence of chemical substance: 0.8
Yeast gene YPL221W
  level of expressed mRNA in the presence of chemical substance / level in the absence of chemical substance: 1.0
Yeast gene YPL225W
  level of expressed mRNA in the presence of chemical substance / level in the absence of chemical substance: 0.9
Yeast gene YPR014C, cultured two hours with the substance
  The level of expressed mRNA in the presence of chemical substance/The level of expressed mRNA in the absence of chemical substance: 0.9
Yeast gene YPR023C, cultured two hours with substance
  The level of expressed mRNA in the presence of chemical substance/The level of expressed mRNA in the absence of chemical substance: 0.8
Yeast gene YPR037C, mitochondria-located protein gene, cultured two hours with substance
  The level of expressed mRNA in the presence of chemical substance/The level of expressed mRNA in the absence of chemical substance: 4.1
Yeast gene YPR049C
  level of expressed mRNA in the presence of chemical substance / level in the absence of chemical substance: 1.5
Yeast gene YPR146C
  level of expressed mRNA in the presence of chemical substance / level in the absence of chemical substance: 0.9
Yeast gene YPR148C
  level of expressed mRNA in the presence of chemical substance / level in the absence of chemical substance: 1.7
Yeast gene YPR172W
  level of expressed mRNA in the presence of chemical substance / level in the absence of chemical substance: 1.5
